# Tests used:
# Experiment in all cases: relative viability (nuclei count vs DMSO), 5 days (fraction); higher = more cells survive
# [1] = compound: CCC1=CN=CN=C1N2CCN(CC2)CC3=NC4=C(N3)C=C(C=C4)C(F)(F)F + CC(C)C[C@H](NC(=O)[C@H](Cc1ccccc1)NC(=O)c1cnccn1)B(O)O [Bortezomib] (partner 0.002 µM)
# Summary of the method: (§1)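 Lung cancer cell lines in 1536-well plates were dosed by pin tool the day after seeding, either with one drug alone or with a fixed anchor-drug dose plus five library-drug doses (not always all listed) in √10 steps. After 5 days, cells were fixed and their nuclei stained in one step (final 0.05% Triton X-100, 1% formaldehyde, 1 ug/ml Hoechst), then counted on 4× images. Relative viability is the nuclei count in treated wells divided by that in vehicle wells. Values are medians of duplicate plates.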
# [2] = compound: CCC1=CN=CN=C1N2CCN(CC2)CC3=NC4=C(N3)C=C(C=C4)C(F)(F)F + C[C@]1(O)C[C@@H](c2nc(-c3ccc4ccc(-c5ccccc5)nc4c3)c3c(N)nccn32)C1 [Linsitinib] (partner 1 µM)
# Summary of the method: as §1
# [3] = compound: CCn1c(-c2nonc2N)nc2cnc(Oc3cccc(NC(=O)c4ccc(OCCN5CCOCC5)cc4)c3)cc21 + CC(=O)c1c(C)c2cnc(Nc3ccc(N4CCNCC4)cn3)nc2n(C2CCCC2)c1=O [Palbociclib] (partner 0.5 µM)
# Summary of the method: as §1
# [4] = compound: N=C1NC(=O)/C(=C/c2ccc(O)cc2)S1 [Mirin] + Nc1nc2[nH]cc(CCc3ccc(C(=O)N[C@@H](CCC(=O)O)C(=O)O)cc3)c2c(=O)[nH]1 [Pemetrexed] (partner 0.2 µM)
# Summary of the method: as §1
cell line,measurement,setting,value
NCI-H1355,relative viability,[1]; first compound 0.04 µM,1.21
same,relative viability,[1]; first compound 0.1265 µM,1.17
same,relative viability,[1]; first compound 0.4 µM,1.22
same,relative viability,[1]; first compound 1.265 µM,1.07
same,relative viability,[1]; first compound 4 µM,1.38
same,relative viability,[2]; first compound 0.04 µM,0.852
same,relative viability,[2]; first compound 0.1265 µM,0.745
same,relative viability,[2]; first compound 0.4 µM,0.806
same,relative viability,[2]; first compound 1.265 µM,0.732
same,relative viability,[2]; first compound 4 µM,0.913
same,relative viability,[3]; first compound 0.04 µM,0.321
same,relative viability,[3]; first compound 0.1265 µM,0.411
same,relative viability,[3]; first compound 0.4 µM,0.411
same,relative viability,[3]; first compound 1.265 µM,0.397
same,relative viability,[3]; first compound 4 µM,0.374
same,relative viability,[4]; first compound 0.25 µM,1.06
same,relative viability,[4]; first compound 0.7906 µM,1.09
same,relative viability,[4]; first compound 2.5 µM,1.08
same,relative viability,[4]; first compound 7.906 µM,1
same,relative viability,[4]; first compound 25 µM,1.11
EKVX,relative viability,[1]; first compound 0.04 µM,0.994
same,relative viability,[1]; first compound 0.1265 µM,0.945
same,relative viability,[1]; first compound 0.4 µM,0.983
same,relative viability,[1]; first compound 1.265 µM,0.952
same,relative viability,[1]; first compound 4 µM,1.13
same,relative viability,[2]; first compound 0.04 µM,1.01
same,relative viability,[2]; first compound 0.1265 µM,0.897
same,relative viability,[2]; first compound 0.4 µM,0.954
same,relative viability,[2]; first compound 1.265 µM,0.769
same,relative viability,[2]; first compound 4 µM,0.905
same,relative viability,[3]; first compound 0.04 µM,0.566
same,relative viability,[3]; first compound 0.1265 µM,0.368
same,relative viability,[3]; first compound 0.4 µM,0.365
same,relative viability,[3]; first compound 1.265 µM,0.348
same,relative viability,[3]; first compound 4 µM,0.329
same,relative viability,[4]; first compound 0.25 µM,0.379
same,relative viability,[4]; first compound 0.7906 µM,0.318
same,relative viability,[4]; first compound 2.5 µM,0.397
same,relative viability,[4]; first compound 7.906 µM,0.502
same,relative viability,[4]; first compound 25 µM,0.346
NCI-H460,relative viability,[1]; first compound 0.04 µM,1.11
same,relative viability,[1]; first compound 0.1265 µM,1.1
same,relative viability,[1]; first compound 0.4 µM,0.977
same,relative viability,[1]; first compound 1.265 µM,1.06
same,relative viability,[1]; first compound 4 µM,0.951
same,relative viability,[2]; first compound 0.04 µM,0.891
same,relative viability,[2]; first compound 0.1265 µM,0.683
same,relative viability,[2]; first compound 0.4 µM,0.828
same,relative viability,[2]; first compound 1.265 µM,0.716
same,relative viability,[2]; first compound 4 µM,0.718
same,relative viability,[3]; first compound 0.04 µM,0.213
same,relative viability,[3]; first compound 0.1265 µM,0.126
same,relative viability,[3]; first compound 0.4 µM,0.101
same,relative viability,[3]; first compound 1.265 µM,0.056
same,relative viability,[3]; first compound 4 µM,0.073
same,relative viability,[4]; first compound 0.25 µM,0.0601
same,relative viability,[4]; first compound 0.7906 µM,0.0695
same,relative viability,[4]; first compound 2.5 µM,0.0719
same,relative viability,[4]; first compound 7.906 µM,0.0635
same,relative viability,[4]; first compound 25 µM,0.0557
NCI-H1975,relative viability,[1]; first compound 0.04 µM,0.449
same,relative viability,[1]; first compound 0.1265 µM,0.341
same,relative viability,[1]; first compound 0.4 µM,0.363
same,relative viability,[1]; first compound 1.265 µM,0.335
same,relative viability,[1]; first compound 4 µM,0.318
same,relative viability,[2]; first compound 0.04 µM,1.07
same,relative viability,[2]; first compound 0.1265 µM,0.966
same,relative viability,[2]; first compound 0.4 µM,0.898
same,relative viability,[2]; first compound 1.265 µM,0.901
same,relative viability,[2]; first compound 4 µM,0.921
same,relative viability,[3]; first compound 0.04 µM,0.476
same,relative viability,[3]; first compound 0.1265 µM,0.446
same,relative viability,[3]; first compound 0.4 µM,0.273
same,relative viability,[3]; first compound 1.265 µM,0.23
same,relative viability,[3]; first compound 4 µM,0.474
same,relative viability,[4]; first compound 0.25 µM,0.324
same,relative viability,[4]; first compound 0.7906 µM,0.256
same,relative viability,[4]; first compound 2.5 µM,0.272
same,relative viability,[4]; first compound 7.906 µM,0.274
same,relative viability,[4]; first compound 25 µM,0.252
HCC-78,relative viability,[1]; first compound 0.04 µM,0.538
same,relative viability,[1]; first compound 0.1265 µM,0.592
same,relative viability,[1]; first compound 0.4 µM,0.59
same,relative viability,[1]; first compound 1.265 µM,0.528
same,relative viability,[1]; first compound 4 µM,0.517
same,relative viability,[2]; first compound 0.04 µM,0.38
same,relative viability,[2]; first compound 0.1265 µM,0.584
same,relative viability,[2]; first compound 0.4 µM,0.478
same,relative viability,[2]; first compound 1.265 µM,0.464
same,relative viability,[2]; first compound 4 µM,0.335
same,relative viability,[3]; first compound 0.04 µM,0.446
same,relative viability,[3]; first compound 0.1265 µM,0.445
same,relative viability,[3]; first compound 0.4 µM,0.525
same,relative viability,[3]; first compound 1.265 µM,0.533
same,relative viability,[3]; first compound 4 µM,0.452
same,relative viability,[4]; first compound 0.25 µM,0.952
same,relative viability,[4]; first compound 0.7906 µM,0.882
same,relative viability,[4]; first compound 2.5 µM,0.882
same,relative viability,[4]; first compound 7.906 µM,0.903
same,relative viability,[4]; first compound 25 µM,0.871
NCI-H2085,relative viability,[1]; first compound 0.04 µM,0.927
same,relative viability,[1]; first compound 0.1265 µM,0.949
same,relative viability,[1]; first compound 0.4 µM,1.13
same,relative viability,[1]; first compound 1.265 µM,1.03
same,relative viability,[1]; first compound 4 µM,1.04
same,relative viability,[2]; first compound 0.04 µM,0.911
same,relative viability,[2]; first compound 0.1265 µM,0.787
same,relative viability,[2]; first compound 0.4 µM,0.982
same,relative viability,[2]; first compound 1.265 µM,0.823
same,relative viability,[2]; first compound 4 µM,0.793
same,relative viability,[3]; first compound 0.04 µM,0.514
same,relative viability,[3]; first compound 0.1265 µM,0.44
same,relative viability,[3]; first compound 0.4 µM,0.402
same,relative viability,[3]; first compound 1.265 µM,0.359
same,relative viability,[3]; first compound 4 µM,0.39
same,relative viability,[4]; first compound 0.25 µM,0.919
same,relative viability,[4]; first compound 0.7906 µM,1.03
same,relative viability,[4]; first compound 2.5 µM,0.932
same,relative viability,[4]; first compound 7.906 µM,0.925
same,relative viability,[4]; first compound 25 µM,0.932
H3255,relative viability,[1]; first compound 0.04 µM,0.671
same,relative viability,[1]; first compound 0.1265 µM,0.849
same,relative viability,[1]; first compound 0.4 µM,0.739
same,relative viability,[1]; first compound 1.265 µM,0.816
same,relative viability,[1]; first compound 4 µM,0.756
same,relative viability,[2]; first compound 0.04 µM,0.937
same,relative viability,[2]; first compound 0.1265 µM,0.956
same,relative viability,[2]; first compound 0.4 µM,0.904
same,relative viability,[2]; first compound 1.265 µM,0.825
same,relative viability,[2]; first compound 4 µM,0.772
same,relative viability,[3]; first compound 0.04 µM,0.293
same,relative viability,[3]; first compound 0.1265 µM,0.311
same,relative viability,[3]; first compound 0.4 µM,0.318
same,relative viability,[3]; first compound 1.265 µM,0.296
same,relative viability,[3]; first compound 4 µM,0.305
same,relative viability,[4]; first compound 0.25 µM,0.525
same,relative viability,[4]; first compound 0.7906 µM,0.605
same,relative viability,[4]; first compound 2.5 µM,0.626
same,relative viability,[4]; first compound 7.906 µM,0.54
same,relative viability,[4]; first compound 25 µM,0.571
NCI-H2126,relative viability,[1]; first compound 0.04 µM,1.05
same,relative viability,[1]; first compound 0.1265 µM,1.08
same,relative viability,[1]; first compound 0.4 µM,1.19
same,relative viability,[1]; first compound 1.265 µM,1.16
same,relative viability,[1]; first compound 4 µM,1.14
same,relative viability,[2]; first compound 0.04 µM,0.666
same,relative viability,[2]; first compound 0.1265 µM,0.696
same,relative viability,[2]; first compound 0.4 µM,0.725
same,relative viability,[2]; first compound 1.265 µM,0.614
same,relative viability,[2]; first compound 4 µM,0.733
same,relative viability,[3]; first compound 0.04 µM,0.362
same,relative viability,[3]; first compound 0.1265 µM,0.338
same,relative viability,[3]; first compound 0.4 µM,0.355
same,relative viability,[3]; first compound 1.265 µM,0.361
same,relative viability,[3]; first compound 4 µM,0.325
same,relative viability,[4]; first compound 0.25 µM,0.754
same,relative viability,[4]; first compound 0.7906 µM,0.574
same,relative viability,[4]; first compound 2.5 µM,0.758
same,relative viability,[4]; first compound 7.906 µM,0.855
same,relative viability,[4]; first compound 25 µM,0.686
